{"source": "patent US6645504B1", "about": "“Bystander suppression of type I diabetes by oral administration of glucagon” (AutoImmune Inc., priority 1987, dated 2003)", "key": {"[1]": {"test_system": "MBP specific T-cells", "experiment": "Treatment of supernatants with anti-cytokine antibodies", "format": "cell-based, Lewis rats", "settings": "added to spleen cells of MBP-fed animals stimulated with MBP; FIG. 2", "method": "In Vitro Suppression Of Proliferative Responses By Supernatants. Spleen cells were removed 7-14 days after the last feeding and a single cell suspension prepared by pressing the spleens through a stainless steel mesh. For preparation of supernatants, spleen cells at a concentration of 5×10^6 cells/ml were stimulated in vitro with MBP (50 μg/ml) in 10 ml of proliferation medium. Proliferation medium consisted of RPMI 1640 (GIBCO, Grand Island, N.Y.) supplemented with 2×10^−5 M 2-mercaptoethanol, 1% sodium pyruvate, 1% penicillin and streptomycin, 1% glutamine, 1% HEPES buffer, 1% nonessential amino acids and 1% autologous serum. Supernatants were harvested at 24 hours and 100 μl added to 2.5×10^4 MBP specific T-cells, raised and maintained as previously described (Ben-Nun, A. et al., Eur. J. Immunol. 11:195-199, 1981), cultured with 5×10^5 irradiated (2500 rad) thymocytes, in 100 μl of proliferation media. MBP ([…]) was added to the culture in a volume of 20 μl. Experiments were performed in triplicate in round bottomed 96-well plates (Costar, Cambridge, Mass.). Cells were cultured for 72 hours at 37° C. in an incubator with humidified 6% CO2 and 94% air atmosphere, and each well was pulsed with 1 μCi of ^3H thymidine for the last 18 hours of culture. Cultures were harvested onto fiberglass filters using a multiharvester and counted using standard liquid scintillation techniques. […]"}, "[2]": {"test_system": "EAE", "experiment": "In vivo bystander suppression of EAE (MBP/CFA plus secondary antigen)", "parameters": "species or system Lewis rats", "method": "Immunization Of Animals. Animals were immunized with 25 μg of MBP in the footpad, emulsified in an equal volume of CFA containing 4 mg/ml of Mycobacterium tuberculosis (Difco Labs, Detroit, Mich.) in order to induce a substantial EAE disease state. For in vivo bystander suppression experiments, 50-300 μg of the secondary antigens OVA, BSA or KLH were injected subcutaneously in the same footpad in 100 μl PBS 8 hours after primary immunization with MBP CFA.\nClinical Evaluation. Animals were evaluated in a blinded fashion every day for evidence of EAE in order to correlate the clinical manifestations of Bystander Suppression with the in vitro assays described below. Clinical severity of EAE was scored as follows: 0, no disease; 1, limp tail; 2, hind limb paralysis; 3, hind limb paraplegia, incontinence; 4, tetraplegia; 5, death. Mean maximal clinical severity was calculated as previously described for each experimental group (7). Statistical analysis was performed using a one-tailed student's t test and a chi square analysis for comparing incidence between groups.\nInduction Of Oral Tolerance. Animals were fed 1 mg MBP, OVA, BSA or KLH dissolved in 1 ml PBS or PBS alone, by gastric intubation using an 18-gauge stainless steel animal feeding needle (Thomas Scientific, Swedesboro, N.J.). Animals were fed five times (total dose of 5 mg), at intervals of 2-3 days with the last feeding 2 days before immunization."}, "[3]": {"test_system": "MBP line", "experiment": "Transwell culture suppression of MBP T cell line", "format": "cell-based, Lewis rats", "settings": "MBP line + MBP", "source_text": "(§1) Transwell Cultures. A dual chamber transwell culture system (Costar, Cambridge, Mass.), which is 24.5 mm in diameter and consists of two compartments separated by a semi-permeable polycarbonate membrane, with a pore size of 0.4 μm, was used. The two chambers are 1 mm apart, allowing cells to be coin-cubated in close proximity without direct cell-to-cell contact. To measure in vitro suppression of proliferative responses in transwell cultures, 5×10^4 MBP- or OVA-specific line cells, raised and maintained as previously described (Ben-Nun, A. et al., Eur. J. Immunol. 11:195, 1981), were cultured with 10^6 irradiated (2,500 rad) thymocytes, in 600 μl of proliferation media in the lower well. Spleen cells from orally tolerized rats or controls (fed BSA) were added to the upper well (5×10^5 cells in 200 μl). Spleen cells were removed 7-14 days after the last feeding, and a single cell suspension was prepared by pressing the spleens through a stainless steel mesh. MBP and OVA (50 μg/ml) were added in a volume of 20 μl. […] In some experiments, modulator cells were added in the lower well together with responder cells, and in these instances modulator cells were irradiated (1,250 rad) immediately before being placed in culture. Proliferation media consisted of RPMI 1640 (Gibco Laboratories, Grand Island, N.Y.) supplemented with […] 2-mercaptoethanol, 1% sodium pyruvate, 1% penicillin and streptomycin, 1% glutamine, 1% HEPES buffer, 1% nonessential amino acids, and 1% autologous serum. Each transwell was performed in quadruplicate. The transwells were incubated at 37° C. in a humidified 6% CO2 and 94% air atmosphere for 72 hours. After 54 hours of culture, each lower well was pulsed with 4 μCi of [^3H]thymidine and at 72 hours split and reseeded to three wells in a round-bottomed 96-well plate (Costar) for harvesting onto fiberglass filters and counting using standard liquid scintillation techniques. Percent suppression =100×(1−Δ A cpm responders cultured with modulators/Δ cpm of responders)."}, "[4]": {"test_system": "TGF-β", "experiment": "Measurement of TGF-β activity in serum-free culture supernatants of spleen cells", "format": "cell-based, Lewis rats", "settings": "spleen cells of fed animals stimulated in vitro with the fed antigen", "method": "Measurement Of TGF-β Activity In Serum-Free Culture Supernatants. Serum free culture supernatants were collected as previously described (Kehri, et al. J. Exp. Med. 163: 1037-1050, 1986; Wahl, et al. J. […] Thereafter cells were washed three times and resuspended in serum-free medium for the remainder of the 72 hour culture, collected, then frozen until assayed. Determination of TGF-β content and isoform type in supernatants was performed using a mink lung epithelial cell line (American Type Culture Collection, Bethesda, Md. #CCL-64) according to Danielpour et al. (supra), and confirmed by a Sandwich Enzyme Linked Immunosorbent Assay (SELISA) assay as previously described (Danielpour et al. Growth Factors 2: 61-71,1989). The percent active TGF-β was determined by assay without prior acid activation of the samples."}, "[5]": {"test_system": "DTH responses to MBP or OVA", "experiment": "Delayed type hypersensitivity (DTH) testing, Example 2", "format": "in vivo, Lewis rats", "method": "Delayed Type Hypersensitivity (DTH) Testing. DTH was tested by injecting 50 μg of MBP or OVA in PBS, subcutaneously into the ear. MBP was injected in the left ear and OVA in the right ear in the same animal. Thickness, in units of 0.01 inch, was measured in a blinded fashion, before and 48 hours after challenge, using micrometer calipers (Mitutoyo, Utsunomia, Japan). Change in ear thickness before and after challenge was recorded for each animal, and results were expressed as the mean for each experimental group ± SEM; each group consisted of five animals."}, "[6]": {"test_system": "EAE", "experiment": "Adoptive transfer of disease suppression", "format": "in vivo, Lewis rats", "settings": "naive recipients immunized with MBP/CFA and given OVA subcutaneously; FIG. 9", "method": "Adoptive Transfer Of Disease Suppression. In order to monitor the adoptive transfer of disease suppression occurring during Bystander Suppression donor rats were fed either 1 mg MBP, OVA, or KLH, five times at 2 day intervals and killed 7-14 days after the final feeding. Spleen cells were harvested, and incubated in vitro with the homologous antigen (50 μg/ml) in proliferation medium, for 72 hours. Cells were injected intraperitoneally: 10^8 cells for whole spleen populations or 5-6×10^7 cells for CD8− or CD4-depleted populations. Recipient animals were irradiated (250 rad) before adoptive transfer, immunized with MBP/CFA 6 hours after adoptive transfer, and challenged 8 hours later with 50 μg OVA."}, "[7]": {"test_system": "OVA (responder) line", "experiment": "Transwell triggering of suppression by MBP peptides", "format": "cell-based, rats", "settings": "peptide added to modulator well with spleen cells of MBP-fed animals; FIG. 11", "source_text": "as §1\nThe Transwell System of Example 2 above was used to identify the epitopes present on guinea pig MBP which induce the release of TGF-β from suppressor T-cells.\nPeptides corresponding to guinea pig MBP residue nos."}, "[8]": {"test_system": "EAE", "experiment": "EAE induced by guinea pig MBP 71-90, feeding of MBP peptides", "format": "in vivo, Lewis rats", "settings": "fed; FIG. 14", "method": "The effects of feeding various peptides to Lewis rats induced for EAE by guinea pig MBP residue nos. 71-90 (the major immunodominant epitope of guinea pig MBP as shown in Example 3 above) were also studied.\nEAE was induced by immunizing with 0.25 mg of guinea pig MBP amino acid residue nos 71-90 in Complete Freund's Adjuvant and the effect of feeding various guinea pig MBP peptides on EAE was examined."}, "[9]": {"test_system": "MBP-primed lymphoid cells", "experiment": "Proliferation of MBP-primed lymphoid cells in response to overlapping guinea pig MBP peptides", "format": "cell-based, rats", "settings": "lymph node cells triggered with MBP-peptides; FIG. 10", "source_text": "The disease-inducing fragments (autoimmune response epitopes) of MBP were first confirmed as follows: Overlapping peptides as detailed in FIG. 10, of guinea pig MBP were obtained from commercial sources or synthesized in accordance with well-known techniques, specifically using a commercial peptide synthesis apparatus (from Applied Biosystems) and following the manufacturer's instructions. Whole MBP was then fed to rats and lymph node cells from the orally tolerized animals were triggered with the MBP-peptides. The ability of the triggered cells to induce killer T-cells was then quantitatively determined by a proliferation assay also, as described in Examples 1 and 2, and by testing the ability of the proliferating cells to transfer the disease."}, "[10]": {"test_system": "DTH responses", "experiment": "DTH responses in animals fed MBP or MBP peptides", "format": "in vivo, Lewis rats", "settings": "FIG. 15", "source_text": "Guinea pig MBP peptide 131-150 was ineffective in this case. Peptides were also fed with STI which prevents their breakdown by gastric juices and enhances their biological effect. DTH responses to whole MBP were suppressed by feeding MBP or any one of the MBP-peptides 21-40, or 71-90."}, "[11]": {"test_system": "EAE", "experiment": "I.V. tolerization with MBP and MBP peptides in EAE induced with whole guinea pig MBP", "format": "in vivo, SJL/J mice", "settings": "days 8 and 9 post immunization, FIG. 16", "source_text": "FIG. 16 is a bar graph showing the effect of intravenous tolerization with MBP and disease inducing and non-inducing fragments thereof on induced EAE expression in SJL/J mice.\nFinally, the suppression of EAE by I.V. tolerization with MBP and MBP peptides prior to disease expression (on days 8 and 9 post immunization) was examined."}, "[12]": {"test_system": "rheumatoid arthritis symptoms", "experiment": "Oral collagen in humans with rheumatoid arthritis", "format": "in vivo", "settings": "0.1-1.0 mg single dose daily", "source_text": "The above animal models can be used to establish the utility of the present invention in mammals (including humans). […] All of these human trials were attempted based on animal data using the appropriate disease model."}, "[13]": {"settings": "OVA-fed modulators + OVA in upper well"}, "[14]": {"settings": "OVA-fed modulators in upper well without OVA"}}, "note": "Where “and” joins values, the source holds several entries; their conditions need not be identical. Equal entries are not always repeated."}
{"molecule": "COc1ccc2c(c1)c(CC(=O)O)c(C)n2C(=O)c1ccc(Cl)cc1", "note": "[indomethacin]", "values": [{"measurement": "effect on suppression mediated by the supernatants", "setting": "[1]", "value": "No effect on suppression"}]}
{"molecule": "OVA: Ovalbumin purchased from Sigma", "values": [{"measurement": "disease severity", "setting": "[2]; OVA fed (1 mg, five times) plus OVA given subcutaneously after MBP/CFA, FIG. 6B", "value": "0.9±0.2"}, {"measurement": "disease severity", "setting": "[2]; OVA fed and KLH given subcutaneously (control group), FIG. 6B", "value": "3.9±0.1"}, {"measurement": "disease severity", "setting": "[2]; animals fed OVA in whom KLH was given after MBP/CFA plus OVA subcutaneously, FIG. 6C, two values 'respectively'", "value": "3.7±0.1 and 3.8±0.2"}, {"measurement": "dose of secondary antigen given subcutaneously at which suppression of EAE occurred", "setting": "[2]; fed antigen, same antigen subcutaneously after MBP/CFA", "value": 50, "unit": "µg"}, {"measurement": "mean maximal clinical disease severity", "setting": "[2]; not fed, OVA given subcutaneously in footpad 8 hours after MBP/CFA, FIG. 6A", "value": "3.8±0.1"}, {"measurement": "Percent Suppression", "setting": "[3]; [13]", "value": 47, "unit": "%"}, {"measurement": "Δ cpm", "setting": "[3]; [13]", "value": "37,778 ± 3,780 cpm"}, {"measurement": "Percent Suppression", "setting": "[3]; [14]", "value": 6, "unit": "%"}, {"measurement": "Δ cpm", "setting": "[3]; [14]", "value": "67,075 ± 2,904 cpm"}, {"measurement": "TGF-β in the active form", "setting": "[4]", "value": "65±9", "unit": "%"}, {"measurement": "amount of TGF-β", "setting": "[4]; serum-free", "value": "6.1 ± 1.0", "unit": "ng/mL"}, {"measurement": "DTH response to OVA", "setting": "[5]; OVA fed, OVA subcutaneously in association with MBP/CFA", "value": "did not generate an immune response to OVA"}, {"measurement": "DTH responses to MBP", "setting": "[5]; fed antigen, then immunized with MBP/CFA plus OVA, FIG. 7", "value": "Suppressed DTH responses to MBP"}, {"measurement": "adoptive transfer of protection by spleen cells from fed animals", "setting": "[6]", "value": "adoptively transferred protection"}]}
{"molecule": "guinea pig MBP 71-90: peptide spanning residue 71-90 of guinea pig MBP, the immunodominant epitope (SLPQKSQRSQDENPVVHFFK; UniProt P25188 71-90, looked up, fragment)", "values": [{"measurement": "triggering suppression of proliferation in the transwell system", "setting": "[7]", "value": "ineffective in triggering suppression"}, {"measurement": "down-regulation of EAE induced by guinea pig MBP 71-90", "setting": "[8]", "value": "equally effective in down-regulating EAE"}, {"measurement": "induction of killer T-cells (proliferation)", "setting": "[9]", "value": "by far the most efficient inducer of killer T-cells"}, {"measurement": "DTH responses to guinea pig MBP peptide 71-90", "setting": "[10]", "value": "suppressed"}, {"measurement": "DTH responses to whole MBP", "setting": "[10]", "value": "suppressed"}, {"measurement": "suppression of EAE induced with whole guinea pig MBP", "setting": "[11]", "value": "effective in suppressing EAE"}]}
{"molecule": "collagen", "values": [{"measurement": "rheumatoid arthritis symptoms (joint tenderness, AM stiffness, grip strength)", "setting": "[12]", "value": "successfully suppressed"}]}
